# Reference: US7008636B2, “2,3,5-substituted biphenyls useful in the treatment of insulin resistance and hyperglycemia” (Wyeth, priority 1998, dated 2006)
# Where a name gives a salt, the structure may show the parent alone.
# Target: T1, recombinant, human protein tyrosine phosphatase (PTP) 1B (hPTP1B) (Homo sapiens, UniProt P18031)
# T1 construct: made in house
# T1 sequence (P18031 1-435): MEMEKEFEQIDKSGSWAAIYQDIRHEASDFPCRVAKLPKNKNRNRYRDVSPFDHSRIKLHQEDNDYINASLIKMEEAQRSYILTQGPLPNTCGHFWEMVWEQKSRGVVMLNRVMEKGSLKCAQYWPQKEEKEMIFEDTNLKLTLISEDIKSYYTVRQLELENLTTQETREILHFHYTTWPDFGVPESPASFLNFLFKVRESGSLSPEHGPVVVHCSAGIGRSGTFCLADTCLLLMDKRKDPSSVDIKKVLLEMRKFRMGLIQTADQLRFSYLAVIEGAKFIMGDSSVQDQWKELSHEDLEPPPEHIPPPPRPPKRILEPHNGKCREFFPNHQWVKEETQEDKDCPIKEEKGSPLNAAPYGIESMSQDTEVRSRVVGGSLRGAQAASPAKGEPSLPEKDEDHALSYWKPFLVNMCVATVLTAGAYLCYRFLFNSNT
# Assay: Inhibition of tri-phosphorylated insulin receptor dodecaphosphopeptide dephosphorylation by hPTP1B
# Assay type: biochemical
# Details: 50 μM IR triphosphopeptide substrate, 5 min preincubation and 5 min reaction at 37° C., malachite green-ammonium molybdate phosphate detection
row,IC50 [nM],Compound
1,287,"O=C(O)COc1c(-c2cccc(Cl)c2)cc(C(=O)NCCCCCCCCc2ccccc2)cc1-c1ccccc1F [Example 115, [3″-Chloro-2-fluoro-5′-(8-phenyl-octylcarbamoyl)-[1,1′;3′,1″]terphenyl-2′-yloxy]-acetic acid]"
2,450,"O=C(O)COc1c(-c2cccc(C(F)(F)F)c2)cc(C(=O)NCCCCCCCCc2ccccc2)cc1-c1ccccc1F [Example 108, [2″-Fluoro-5′-(8-phenyl-octylcarbamoyl)-3-trifluoromethyl-[1,1′;3′,1″]terphenyl-2′-yloxy)-acetic acid]"
3,92,"O=C(O)COc1c(-c2cccc(Cl)c2)cc(C(=O)NCCCCCCCCOCc2ccc(C(F)(F)F)cc2)cc1-c1cccc(Cl)c1 [Example 122, {3,3″-Dichloro-5′-[8-(4-trifluoromethyl-benzyloxy)-octylcarbamoyl]-[1,1′;3′,1″]terphenyl-2′-yloxy}-acetic acid]"
4,83,"O=C(NCCCCCCCCc1ccccc1)c1cc(Br)c(OCc2ccc(C(=O)O)c(O)c2)c(-c2cccc(C(F)(F)F)c2)c1 [Example 208, 4-[3-Bromo-5-(8-phenyl-octylcarbamoyl)-3′-trifluoromethyl-biphenyl-2-yloxymethyl]-2-hydroxy-benzoic acid]"
5,139,"CCCCCCCCCCCCNC(=O)c1cc(-c2ccc(OC)cc2)c(OCC(=O)O)c(-c2ccccc2F)c1 [Example 155, (5′-Dodecylcarbamoyl-2″-fluoro-4-methoxy-[1,1′;3′,1″]terphenyl-2′-′yloxy)acetic acid]"
6,129,"CCCCCCCCCCCCNC(=O)c1cc(-c2ccc(OC)cc2)c(OCC(=O)O)c(-c2cccc(C(F)(F)F)c2)c1 [Example 154, (5′-Dodecylcarbamoyl-4″-methoxy-3-trifluoromethyl-[1,1′;3′1″]terphenyl-2′-yloxy)acetic acid]"
7,53,"O=C(O)COc1c(-c2cccc(Cl)c2)cc(C(=O)NCCCCCCCCOc2ccc(F)cc2F)cc1-c1cccc(Cl)c1 [Example 120, {3,3″-Dichloro-5′-[8-(2,4-difluoro-phenoxy)-octylcarbamoyl]-[1,1′;3′,1″]terphenyl-2′-yloxy}-acetic acid]"
8,102,"COc1cc(COc2c(-c3cccc(C(F)(F)F)c3)cc(C(=O)NCCCCCCCCc3ccccc3)cc2-c2cccc(C(F)(F)F)c2)ccc1C(=O)O [Example 199, 2-Methoxy-4-[5′-(8-phenyl-octylcarbamoyl)-3,3″-bis-trifluoromethyl-[1,1′:3′1″]terphenyl-2′yloxymethyl]-benzoic acid]"
9,63,"CCCCCCCCCCCCNC(=O)c1cc(-c2cccc(Cl)c2)c(OCC(=O)O)c(-c2cccc(Cl)c2)c1 [Example 1, (3,3″-Dichloro-5′-dodecylcarbamoyl-[1,1′;3′,1″]terphenyl-2′-yloxy)-acetic acid]"
10,104,O=C(O)COc1c(-c2cccc(C(F)(F)F)c2)cc(C(=O)NCCCCCCCCc2ccccc2)cc1-c1cccc(C(F)(F)F)c1 [Example 177]
11,455,"O=C(O)COc1ccc(C(=O)NCCCCCCCCc2ccccc2)cc1-c1ccc(F)c(Cl)c1 [Example 136, [3′-Chloro-4′-fluoro-5-(8-phenyl-octylcarbamoyl)-biphenyl-2-yloxy]acetic acid]"
12,405,"COCOc1c(-c2cccc(C=O)c2)cc(C(=O)NCCCCCCCc2ccccc2)cc1-c1cccc(C=O)c1 [Example 149, 3,3″-Diformyl-2′-methoxymethoxy-[1,1′:3′,1″]terphenyl-5′-carboxylic acid (7-phenyl-heptyl)-amide]"
13,77,"O=C(O)c1ccc(OCCOc2c(-c3cccc(Cl)c3)cc(C(=O)NCCCCCCCCn3ccc4ccccc43)cc2-c2cccc(Cl)c2)cc1 [Example 165, 4-{2-[3,3″-Dichloro-5′-(8-indol-1-yl-octylcarbamoyl)-[1,1′:3′,1″]terphenyl-2′-yloxy]-ethoxy}benzoic acid]"
14,121,"CCCCCCCCCCCCNC(=O)c1cc(Br)c(OCC(=O)O)c(-c2cccc(C(F)(F)F)c2)c1 [Example 176, (3-Bromo-5-dodecylcarbamoyl-3′-trifluoromethyl-biphenyl-2-yloxy)-acetic acid]"
15,396,"O=C(NCCCCCCCCc1ccccc1)c1cc(Br)c(O)c(-c2cccc(C(=O)OCCCCCl)c2)c1 [Example 152, 3′-Bromo-2′-hydroxy-5′-(8-phenyl-octylcarbamoyl)-biphenyl-3-carboxylic acid 4-chloro-butyl ester]"
16,300,"CCCCCCCCCCCCNC(=O)c1cc(-c2ccccc2F)c(OCC(=O)O)c(-c2ccccc2F)c1 [Example 110, (5′-Dodecylcarbamoyl-2,2″-difluoro-[1,1′;3′,1″]terphenyl-2′-yloxy)-acetic acid]"
17,530,"O=C(NCCCCCCCCc1ccccc1)c1ccc(OS(=O)(=O)c2ccc(C(=O)O)c(O)c2)c(Br)c1 [Example 210, 4-[2-Bromo-4-(8-phenyl-octylcarbamoyl)-phenoxysulfonyl]-2-hydroxy-benzoic acid]"

row,IC50 [nM],Compound
1,98,"CCCCCCCCCCCCNC(=O)c1cc(-c2cccc(Cl)c2)c(OCC(=O)O)c(-c2cccc(C(F)(F)F)c2)c1 [Example 153, (3″-Chloro-5′-dodecylcarbamoyl-3-trifluoromethyl-[1,1′;3′,1″]terphenyl-2′-yloxy)acetic acid]"
2,640,"O=C(NCCCCCCCCc1ccccc1)c1cc(Br)c(O)c(-c2cccc(C(F)(F)F)c2)c1 [Example 194, 5-Bromo-6-hydroxy-3′-trifluoromethyl-biphenyl-3-carboxylic acid (8-phenyl-octyl)-amide]"
3,102,COc1ccc(-c2cc(-c3ccc(C(=O)NCCCCCCCc4ccccc4)cc3)cc(-c3ccc(OC)cc3)c2OCc2ccc(C(=O)O)cc2)cc1 [Example 133]
4,258,"Cc1cccc(-c2cc(C(=O)NCCCCCCCc3ccccc3)cc(-c3cccc(C)c3)c2OCCCC(=O)O)c1 [Example 146, 4-[3,3″-Dimethyl-5′-(7-phenyl-heptylcarbamoyl)-[1,1′:3′,1″]terphenyl-2′-yloxy]-butyric acid]"
5,25,"CCCCCCCCCCCCNC(=O)c1cc(Br)c(OS(=O)(=O)c2ccc(C(=O)O)c(O)c2)c(-c2cccc(C(F)(F)F)c2)c1 [Example 179, 4-(3-Bromo-5-dodecylcarbamoyl-3′-trifluoromethyl-biphenyl-2-yloxysulfonyl)-2-hydroxy-benzoic acid]"
6,18,"CCCCCCCCCCCCCc1cc(-c2ccccc2)c(OCC(=O)O)c(-c2ccccc2)c1 [Example 171, (5′-Tridecyl-[1,1′;3′,1″]terphenyl-2′-yloxy)acetic acid]"
7,136,"CCCCCCCOc1ccc(CNC(=O)c2cc(-c3cccc(Cl)c3)c(OCC(=O)O)c(-c3cccc(Cl)c3)c2)cc1 [Example 162, [3,3″-Dichloro-5′-(4-heptyloxy-benzylcarbamoyl)-[1,1′;3′,1″]terphenyl-2′-yloxy]acetic acid]"
8,77,"O=C(O)COCCOc1c(-c2cccc(Cl)c2)cc(C(=O)NCCCCCCCCn2ccc3ccccc32)cc1-c1cccc(Cl)c1 [Example 168, {2-[3,3″-Dichloro-5′-(8-indol-1-yl-octylcarbamoyl)-[1,1′:3′,1″]terphenyl-2′-yloxy]-ethoxy}acetic acid]"
9,124,"[[4,4′-Dimethoxy-5′-[4-[[(7-phenylheptyl)amino]carbonyl]phenyl][1,1′:3′,1-terphenyl]-2′-yl]oxy]acetic acid [Example 131]"
10,57,"O=C(O)c1ccc(COc2c(-c3cccc(C(F)(F)F)c3)cc(C(=O)NCCCCCCCc3ccccc3)cc2-c2cccc(C(F)(F)F)c2)cc1 [Example 134, 4-[5′-(7-Phenyl-heptylcarbamoyl)-3,3″-bis-trifluoromethyl-[1,1′:3′,1″]terphenyl-2′-yloxymethyl]-benzoic acid]"
11,191,"O=C(O)CCCCOc1c(-c2cccc(Cl)c2)cc(C(=O)NCCCCCCCCn2ccc3ccccc32)cc1-c1cccc(Cl)c1 [Example 164, 5-[3,3″-Dichloro-5′-(8-indol-1-yl-octylcarbamoyl)-[1,1′;3′,1″]terphenyl-2′-yloxy]-pentanoic acid]"
12,627,"O=C(O)COc1c(-c2cccc(Cl)c2)cc(C(=O)NCCCCCCCC[S+]([O-])c2ccc(Cl)cc2)cc1-c1cccc(Cl)c1 (stereo not drawn) [Example 119, {3,3″-Dichloro-5′-[8-(4-chloro-benzenesulfinyl)-octylcarbamoyl]-[1,1′;3′,1″]terphenyl-2′-yloxy}-acetic acid]"
13,44,"CCCCCCCCCCCCNC(=O)c1cc(-c2ccc(F)c(Cl)c2)c(OCC(=O)O)c(-c2ccc(F)c(Cl)c2)c1 [Example 24, (3,3″-Dichloro-5′-dodecylcarbamoyl-4,4″-difluoro[1,1′;3′,1″]terphenyl(-2′-yloxy)-acetic acid sodium salt]"
14,111,"O=C(O)COc1c(-c2cccc(Cl)c2)cc(C(=O)NCCCCCCCCc2ccccc2)cc1-c1cccc(Cl)c1 [Example 3, [3,3″-Dichloro-5′-(8-phenyl-octylcarbamoyl)-[1,1′;3′,1″]terphenyl-2′-yloxy]-acetic acid]"
15,123,"O=C(O)COc1c(-c2ccc(F)c(Cl)c2)cc(C(=O)NCCCCCCCCc2ccccc2)cc1-c1ccc(F)c(Cl)c1 [Example 25, [3,3″-Dichloro-4-4″difluoro-5′-(8-phenyl-octylcarbamoyl)[-1,1′;3′,1″]terphenyl-2′-yloxy]-acetic acid]"
16,55,"CCCCCCCCCCCCNC(=O)c1cc(-c2cccc(Cl)c2)c(OCC(=O)O)c(-c2ccccc2F)c1 [Example 114, (3″-Chloro-5′-dodecylcarbamoyl-2-fluoro-[1,1′;3′,1″]terphenyl-2′-yloxy)-acetic acid]"
